Results from patent publication US20240066119A1, “METHODS AND PLATFORMS FOR ELICITING AN IMMUNE RESPONSE IN THE TREATMENT OF CANCER AND COMPOSITIONS AND VACCINES RELATING THERETO” (University of Maryland, College Park, priority 2021, published 2024).

Tested on: lymphocyte egress from lymphoid tissues
Test: Inhibition of lymphocyte trafficking with FTY720
Type: in vivo, C57BL6 mice
Conditions: FTY720 1 mg/kg daily i.p., day 7 after vaccination
Procedure: Investigation of Adjuvant-Involvement on Split LN Treatments and Effect of Inhibition of Lymphocyte Trafficking on Antigen Specificity. To determine the influence of adjuvant (PolyIC) delivery in the Split LN treatment group on antigen-specificity as quantified by SIINFEKL tetramer, mice were treated as described above for Split LN treatment with soluble OVA and either PolyIC MPs or with PBS. Antigen-specific CD8^+ T cells in the blood and LNs were quantified using SIINFEKL tetramer as described above. Antigen-specific T cells were reported as a percentage of Live, CD8^+ cells. In studies to determine the effect of lymphocyte trafficking on local and systemic antigen-specificity, FTY720 (Sigma) was administered daily at 1 mg/kg via intraperitoneal injection one day prior to vaccination until the end of the experiment (7 days after vaccination). Following vaccination, antigen-specific CD8^+ T cells in the blood and LNs were quantified using SIINFEKL tetramer as described above and reported as a percentage of Live, CD8^+ cells and an overall number of cells from an identical acquisition volume (80 μL).

CCCCCCCCc1ccc(CCC(N)(CO)CO)cc1 [FTY720]
number of antigen-specific T cells in blood: greatly diminished
percentage of antigen-specific T cells in blood: did not significantly change
